Assay results reported in patent US9433592B2, “Pharmaceutical or veterinary antiviral compositions” (priority 2009, dated 2016).
“Also recorded” adds a separate entry of the source.

Legend:
[1] = system: pandemic H1N1 virus (A/California/07/2009); assay type: cell-based, influenza A virus
[2] = system: H5N1 A/Turkey/582/2006; assay type: cell-based, influenza A virus
[3] = system: H1N1 A/New Caledonia/20/99; assay type: cell-based, influenza A virus
[4] = system: influenza A viruses; assay: Selectivity index summary (ratio between CC50 and EC50) on the viruses; assay type: cell-based, influenza A virus; details: summary over the viruses tested (FIG. 4)
[5] = system: H3N2 A/Moscow/10/99; assay type: cell-based, influenza A virus
[6] = system: H5N2 A/Finch/England/2051/94; assay type: cell-based, influenza A virus
[7] = in vitro; details: human
[8] = system: H7N1 A/Chicken/Italy/2076/99; assay type: cell-based, influenza A virus

Row | SMILES | antiviral activity on pandemic H1N1 virus [1] | inhibition of the infectious cycle of H5N1 virus [2] | inhibition of the infectious cycle of H1N1 virus [3] | inhibitor class by selectivity index (SI = CC50/EC50) [4] | inhibition of the infectious cycle of H3N2 virus [5] | inhibition of the infectious cycle of H5N2 virus [6] | CC50 [7] [µM] | inhibition of the infectious cycle of low-MOI H1N1 virus [3] | inhibition of the infectious cycle of low-MOI H7N1 virus [8] | inhibition of the infectious cycle of low-MOI pandemic H1N1 virus [1]
1 | COc1ccc(OC)c(C(O)CNC(=O)CN)c1.Cl (racemic) [midodrine, Acetamide, 2-amino-N-[2-(2,5-dimethoxyphenyl)-2-hydroxyethyl]-monohydrochloride, (±)-] | characterized by antiviral activity; also recorded: inhibits the infectious cycle of all the viruses tested | inhibits the infectious cycle of all the viruses tested | inhibits the infectious cycle of all the viruses tested | moderate (a moderate inhibitor has an SI between 10 and 50) | inhibits the infectious cycle of all the viruses tested | inhibits the infectious cycle of all the viruses tested | – | – | – | –
2 | CCN[C@H]1CN(CCCOC)S(=O)(=O)c2sc(S(N)(=O)=O)cc21 [brinzolamide, (R)-(+)-4-Ethylamino-2-(3-methoxypropyl)-3,4-dihydro-2H-thieno[3,2-e]-1,2-thiazine-6-sulfonamide-1,1-dioxide] | do not seem to have an impact | – | – | – | inhibits primarily the infectious cycle | – | ≥ 666 | inhibits primarily the infectious cycle | inhibits primarily the infectious cycle | –
3 | Cc1nccc2c1[nH]c1cc(O)ccc12 [harmol, 1-Methyl-9H-beta-carbolin-7-ol] | characterized by antiviral activity | inhibits the infectious cycle | – | – | inhibits the infectious cycle | inhibits the infectious cycle | 95 | – | – | inhibits the infectious cycle
4 | C1COC(NC(C2CC2)C2CC2)=N1 [rilmenidine] | do not seem to have an impact | – | inhibits the infectious cycle | – | inhibits the infectious cycle | inhibits the infectious cycle | 1120 | – | – | –
